This note sets out measurements from patent publication US12383534B2, “Methods for treating cancer” (REGENTS OF THE UNIVERSITY OF MINNESOTA, priority 2021, dated 2025).

For test [1], the system named is NCC-CDS-X1 cells (CIC-DUX4 sarcoma cell line). Description: Cell viability (ATP) assay in NCC-CDS-X1 cells. The format is cell-based, human. The procedure: (§1) Basal media were purchased from HyClone, fetal bovine serum (FBS) was from PeakSerum (Ps-FB3, lot 293Q16), and Glutamax (Glu) and Penicillin/Streptomycin (P/S) were from GIBCO. NCC-CDS-X1 (CIC-DUX4 sarcoma cell line, a generous gift from Tadashi Kondo) cell line was cultured in RPMI with 10% FBS, Glu and P/S, Kitra-SRS (CIC-DUX4 sarcoma cell line, a generous gift from Hidetatsu Otani), 3T3, 293T and C2C12 cell lines were cultured in DMEM/10% FBS/Glu/P/S. The immortalized human myoblast LHCN-M2 cell line was cultured in proliferation medium: F10 supplemented with 20% FBS, 2-mercaptoethanol 1× (GIBCO), 10^−9 M dexamethasone (Sigma), 10 ng/mL bFGF (Peprotech), and Glu/P/S. All cells were cultured at 37° C. in a 5% CO2 atmosphere.
(§2) Cell lines were plated in a 96 well dish (1×10^5 cells/well), and the following day were treated with iP300w or its stereoisomers. ATP assays were performed using CellTiter-Glo® Luminescent Cell Viability Assay (Promega) according to the manufacturer's instructions. Luminescence was analyzed on POLARstar Optima Microplate Reader (BMG Labtech, Offenburg, Germany).
The activity of the various iP300w stereoisomers against NCC-CDS-X1 cells was evaluated. Cultures were treated with serial dilutions, ranging from 0.003 μM to 3.0 μM, for up to 96 hours. In cells treated with iP300w, a significant decrease in cell viability was evident at the lowest concentration (0.003 μM) at 48 and 96 hours (FIG. 3A). The effect was dose- and time-dependent. […] (FIG. 2B and FIG. 9).

In test [2] the test system is Kitra-SRS cells (CIC-DUX4 sarcoma cell line). In words: Cell viability (ATP) assay in Kitra-SRS cells. The conditions noted are these: day 2. The format is cell-based, human. The procedure: as §1, §2
To evaluate the consequences of iP300w treatment of CDS cells, its effects on both monolayer cultures as well as 3D spheres was determined in both CDS cell lines. […] Using the cell viability assay, it was determined that 0.003 μM was the lowest effective concentration on day 2 in both lines (FIG. 2B).

Test [3] relates to NCC-CDS-X1 and Kitra-SRS cell cultures. Description: Morphology of monolayer CDS cell cultures. The format is cell-based, human. The conditions noted are these: both CDS cell lines. The procedure: To evaluate the consequences of iP300w treatment of CDS cells, its effects on both monolayer cultures as well as 3D spheres was determined in both CDS cell lines. Inhibition of proliferation was morphologically apparent as early as 24 hours after iP300w treatment and progressed with time (FIG. 2A). Using the cell viability assay, it was determined that 0.003 μM was the lowest effective concentration on day 2 in both lines (FIG. 2B).

Test [4] relates to Panc1, MiaPaca2, CFPac1 pancreatic cancer cells. Description: Cell viability (ATP) assay in pancreatic cancer cells. The format is cell-based. To be noted: serial dilutions, 48 hours. The protocol:
as §2
Pancreatic and colorectal cancer cell lines were treated with iP300w to further distinguish its specificity to CDS from general cytotoxicity. p300/CBP have been correlated with the invasive and migratory properties of pancreatic and colorectal cancers (Iyer, N. G. et al., Proceedings of the National Academy of Sciences of the United States of America 101, 7386-7391 (2004); and Paladino, D. et al, Oncotarget 7, 7253-7267 (2016)). […] This further supports the specific efficacy of iP300w against cancers bearing p300-dependent oncogenic fusion transcription factors (such as CIC-DUX4), vis-à-vis cancers that may show some degree of growth inhibition by iP300w due simply to p300-dependent proliferative pathways.

In test [5] the test system is global H3K18 and H3K27 acetylation (p300/CBP). Description: Western blot for acetylated H3K18 and H3K27 in cell lines overexpressing CIC-DUX4. The format is cell-based, mouse and human. The conditions noted are these: all analyzed CIC-DUX4 overexpressing cell lines, 18 hours. The procedure: For western blot analyses, cells were lysed with RIPA buffer supplemented with protease inhibitor cocktail (Complete, Roche), and proteins were separated on 10% SDS-PAGE gels, then transferred to PVDF membranes. Antibodies were diluted in 5% skim milk in TBST and incubated overnight at 4° C. or 1 hour at RT. An appropriate secondary HRP conjugated antibody was incubated for 1 hour at RT. Membranes were then washed with TBST, and signal was visualized using Pierce ECL western blotting substrate (Thermo Scientific). For immunofluorescence, cells cultured in 96 well plates were fixed in 4% PFA for 10 min., washed twice with PBS, permeabilized with 0.3% Triton X for 30 min, and blocked with 3% BSA for 1 hour at R/T. Primary antibodies were diluted in 3% BSA and incubated o/n at 4° C. An appropriate conjugated secondary antibody was applied for 60 min at RT. Nuclei were visualized using DAPI (1:5000, Sigma). […]
(In general: A western blot detects proteins with antibodies after separation by electrophoresis.)

For the compound `CNC(=O)Cn1cc(-c2ccc3c(c2)[C@H](F)C[C@]32NC(=O)N(CC(=O)N(Cc3ccc(F)cc3)[C@@H](C)C(F)(F)F)C2=O)cn1` (single isomer, unassigned) [iP300w], in test [1] (CDS cells, studies herein), the “effective concentration on CDS cells” value was determined as 0.003 µM. Moreover, in test [1] (NCC-CDS-X1, 48 and 96 hours, serial dilutions 0.003 to 3.0 μM), the “lowest concentration with significant decrease in cell viability” value was determined as 0.003 µM. Moreover, the “lowest effective concentration in cell viability assay” value in test [1] (NCC-CDS-X1, day 2) stood at 0.003 µM; in test [2], 0.003 µM. Further, the “activity relative to A-485 in the cell-based assays” value in test [1] (cell-based assays) is given as “about two orders of magnitude more active than A-485”. For the same compound, in test [3], the “time at which inhibition of proliferation is morphologically apparent” value is listed as 24 hours. The “effect on cell viability” value in test [4] is on record as “no significant effect on cell viability”. The “effect on CIC-DUX4-induced global H3K18 and H3K27 acetylation” value in test [5] is “abolished”.
